Test results reported in patent US20240148821A1, “PHARMACEUTICAL USE OF CYCLIC PEPTIDE COMPOUND” (CHUGAI SEIYAKU KABUSHIKI KAISHA, priority 2021, published 2024).
Numbered stars: 1 amine (or outer) side, 2 acyl side, 3 side chain; on linkers, the order of the positions; unused ones are H or OH. Bridge positions count the residues as written; N and C are the ends. Square brackets hold non-standard residues; d marks the D form. Peptide text beside a SMILES is read from it. * marks the point of attachment. X45 = CN([C@@H](CC=C1CN(C(=O)OC(C)(C)C)C1)C(=O)[*:2])[*:1]; hPhe(3-Cl-4-CF3) = N[C@@H](CCc1ccc(C(F)(F)F)c(Cl)c1)C(=O)O; X112 = O=C([C@H](CCOc1ccc(C(F)(F)F)cc1)N[*:1])[*:2]; X65 = O=C([C@H](CCCc1ccc(C(F)(F)F)cc1)N[*:1])[*:2]; X111 = CN([C@@H](CCC1CCOCC1)C(=O)[*:2])[*:1]; X41 = CN([C@@H](CC=C1CCOCC1)C(=O)[*:2])[*:1]; X119 = CN(C)C(=O)CCCN(CC(=O)[*:2])[*:1]; X74 = CC(C)(O)C=CCN(CC(=O)[*:2])[*:1]; X127 = COC/C=C/CN(CC(=O)[*:2])[*:1]; NMeCha = CN[C@@H](CC1CCCCC1)C(=O)O; NMeChg = CN[C@H](C(=O)O)C1CCCCC1; X43 = O=C(CN(CCCCCO)[*:1])[*:2]; NMeD = CN[C@@H](CC(=O)O)C(=O)O; NMeL = CN[C@@H](CC(C)C)C(=O)O; NMeA = CN[C@@H](C)C(=O)O; Piperidide = C1CCN(*)CC1; Ac5c = NC1(C(=O)O)CCCC1; Sar = CNCC(=O)O

Target: protein-protein interaction between Kras and SOS1 (biotin-tagged human Kras loaded with GDP, His-tagged human SOS1) (Homo sapiens (Human), UniProt P01116, G12D)
Assay: Protein-protein interaction inhibition between Kras and SOS1 (KrasG12D-SOS PPI) using AlphaScreen;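 note: kras produced in E. coli, Ni-coupled donor beads and streptavidin acceptor beads, excitation 680 nm with emission detected at 520–620 nm via singlet oxygen transfer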
Format: biochemical
Settings: not given

Compound	IC50
CC[C@H](C)[C@@H]1NC(=O)[C@H](CC(C)C)N(C)C(=O)C[C@@H](C(=O)N2CCCCC2)N(C)C(=O)[C@H](C2CCCCC2)N(C)C(=O)C2(CCCC2)NC(=O)CN(CCCC(=O)N(C)C)C(=O)[C@H](CCc2ccc(C(F)(F)F)c(Cl)c2)NC(=O)CN(C)C(=O)[C@H](CC2CCCCC2)N(C)C(=O)CN(C)C(=O)CN(C)C1=O [Compound 2052, 4-[(11S,17S,26S,29S,33S,36S)-11-[2-[3-chloro-4-(trifluoromethyl)phenyl]ethyl]-36-cyclohexyl-17-(cyclohexylmethyl)-29-isobutyl-15,18,21,24,30,34,37-heptamethyl-26-[(1S)-1-methylpropyl]-7,10,13,16,19,22,25,28,31,35,38-undecaoxo-33-(piperidine-1-carbonyl)-6,9,12,15,18,21,24,27,30,34,37-undecazaspiro[4.33]octatriacontan-9-yl]-N,N-dimethyl-butanamide] ([NMeL]I[Sar][Sar][NMeCha][Sar][hPhe(3-Cl-4-CF3)][X119][Ac5c][NMeChg][NMeD]-Piperidide; lactam N-11)	4.9 nM

Same assay, conditions: AlphaScreen; biotin-tagged human Kras loaded with GDP, His-tagged human SOS1; read-out: KRAS G12D-SOS PPI IC50

Compound	IC50
CC[C@H](C)[C@@H]1NC(=O)[C@H](C)N(C)C(=O)C[C@@H](C(=O)N2CCCCC2)N(C)C(=O)[C@H](C2CCCCC2)N(C)C(=O)C2(CCCC2)NC(=O)[C@@H]2CCCN2C(=O)[C@H](CCOc2ccc(C(F)(F)F)cc2)NC(=O)CN(C)C(=O)[C@H](CC2CCCCC2)N(C)C(=O)CN(C)C(=O)CN(C)C1=O [Compound 2041, (3S,9S,18S,21S,25S,28S,34S)-28-cyclohexyl-9-(cyclohexylmethyl)-7,10,13,16,21,22,26,29-octamethyl-18-[(1S)-1-methylpropyl]-25-(piperidine-1-carbonyl)-3-[2-[4-(trifluoromethyl)phenoxy]ethyl]spiro[1,4,7,10,13,16,19,22,26,29,32-undecazabicyclo[32.3.0]heptatriacontane-31,1′-cyclopentane]-2,5,8,11,14,17,20,23,27,30,33-undecone] ([NMeA]I[Sar][Sar][NMeCha][Sar][X112]P[Ac5c][NMeChg][NMeD]-Piperidide; lactam N-11)	110 nM
CC[C@H](C)[C@@H]1NC(=O)[C@H](CC(C)C)N(C)C(=O)C[C@@H](C(=O)N2CCCCC2)N(C)C(=O)[C@H](C2CCCCC2)N(C)C(=O)C2(CCCC2)NC(=O)CN(CC=CC(C)(C)O)C(=O)[C@H](CCc2ccc(C(F)(F)F)c(Cl)c2)NC(=O)CN(C)C(=O)[C@H](CC2CCCCC2)N(C)C(=O)CN(C)C(=O)CN(C)C1=O [Compound 2047, (11S,17S,26S,29S,33S,36S)-11-[2-[3-chloro-4-(trifluoromethyl)phenyl]ethyl]-36-cyclohexyl-17-(cyclohexylmethyl)-9-(4-hydroxy-4-methyl-pent-2-enyl)-29-isobutyl-15,18,21,24,30,34,37-heptamethyl-26[(1S)-1-methylpropyl]-33-(piperidine-1-carbonyl)-6,9,12,15,18,21,24,27,30,34,37-undecazaspiro[4.33]octatriacontane-7,10,13,16,19,22,25,28,31,35,38-undecone] ([NMeL]I[Sar][Sar][NMeCha][Sar][hPhe(3-Cl-4-CF3)][X74][Ac5c][NMeChg][NMeD]-Piperidide; lactam N-11)	5.7 nM
CC[C@H](C)[C@@H]1NC(=O)[C@H](CC(C)C)N(C)C(=O)C[C@@H](C(=O)N2CCCCC2)N(C)C(=O)[C@H](C2CCCCC2)N(C)C(=O)C2(CCCC2)NC(=O)[C@H](CCC2CCOCC2)N(C)C(=O)[C@H](CCc2ccc(C(F)(F)F)c(Cl)c2)NC(=O)CN(C)C(=O)[C@H](CC2CCCCC2)N(C)C(=O)CN(C)C(=O)CN(C)C1=O [Compound 2048, (8S,11S,17S,26S,29S,33S,36S)-11-[2-[3-chloro-4-(trifluoromethyl)phenyl]ethyl]-36-cyclohexyl-17-(cyclohexylmethyl)-29-isobutyl-9,15,18,21,24,30,34,37-octamethyl-26-[(1S)-1-methylpropyl]-33-(piperidine-1-carbonyl)-8-(2-tetrahydropyran-4-ylethyl)-6,9,12,15,18,21,24,27,30,34,37-undecazaspiro[4.33]octatriacontane-7,10,13,16,19,22,25,28,31,35,38-undecone] ([NMeL]I[Sar][Sar][NMeCha][Sar][hPhe(3-Cl-4-CF3)][X111][Ac5c][NMeChg][NMeD]-Piperidide; lactam N-11)	3.5 nM
CC[C@H](C)[C@@H]1NC(=O)[C@H](CC(C)C)N(C)C(=O)C[C@@H](C(=O)N2CCCCC2)N(C)C(=O)[C@H](C2CCCCC2)N(C)C(=O)C2(CCCC2)NC(=O)CN(CCCCCO)C(=O)[C@H](CCc2ccc(C(F)(F)F)c(Cl)c2)NC(=O)CN(C)C(=O)[C@H](CC2CCCCC2)N(C)C(=O)CN(C)C(=O)CN(C)C1=O [Compound 2049, (11S,17S,26S,29S,33S,36S)-11-[2-[3-chloro-4-(trifluoromethyl)phenyl]ethyl]-36-cyclohexyl-17-(cyclohexylmethyl)-9-(5-hydroxypentyl)-29-isobutyl-15,18,21,24,30,34,37-heptamethyl-26-[(1S)-1-methylpropyl]-33-(piperidine-1-carbonyl)-6,9,12,15,18,21,24,27,30,34,37-undecazaspiro[4.33]octatriacontane-7,10,13,16,19,22,25,28,31,35,38-undecone] ([NMeL]I[Sar][Sar][NMeCha][Sar][hPhe(3-Cl-4-CF3)][X43][Ac5c][NMeChg][NMeD]-Piperidide; lactam N-11)	4 nM
CC[C@H](C)[C@@H]1NC(=O)[C@H](CC(C)C)N(C)C(=O)C[C@@H](C(=O)N2CCCCC2)N(C)C(=O)[C@H](C2CCCCC2)N(C)C(=O)C2(CCCC2)NC(=O)[C@H](CC=C2CN(C(=O)OC(C)(C)C)C2)N(C)C(=O)[C@H](CCc2ccc(C(F)(F)F)c(Cl)c2)NC(=O)CN(C)C(=O)[C@H](CC2CCCCC2)N(C)C(=O)CN(C)C(=O)CN(C)C1=O [Compound 2050, tert-butyl 3-[2-[(8S,11S,17S,26S,29S,33S,36S)-11-[2-[3-chloro-4-(trifluoromethyl)phenyl]ethyl]-36-cyclohexyl-17-(cyclohexylmethyl)-29-isobutyl-9,15,18,21,24,30,34,37-octamethyl-26-[(1S)-1-methylpropyl]-7,10,13,16,19,22,25,28,31,35,38-undecaoxo-33-(piperidine-1-carbonyl)-6,9,12,15,18,21,24,27,30,34,37-undecazaspiro[4.33]octatriacontan-8-yl]ethylidene]azetidine-1-carboxylate] ([NMeL]I[Sar][Sar][NMeCha][Sar][hPhe(3-Cl-4-CF3)][X45][Ac5c][NMeChg][NMeD]-Piperidide; lactam N-11)	51 nM
CC[C@H](C)[C@@H]1NC(=O)[C@H](CC(C)C)N(C)C(=O)C[C@@H](C(=O)N2CCCCC2)N(C)C(=O)[C@H](C2CCCCC2)N(C)C(=O)C2(CCCC2)NC(=O)CN(C/C=C/COC)C(=O)[C@H](CCc2ccc(C(F)(F)F)c(Cl)c2)NC(=O)CN(C)C(=O)[C@H](CC2CCCCC2)N(C)C(=O)CN(C)C(=O)CN(C)C1=O [Compound 2051, (11S,17S,26S,29S,33S,36S)-11-[2-[3-chloro-4-(trifluoromethyl)phenyl]ethyl]-36-cyclohexyl-17-(cyclohexylmethyl)-29-isobutyl-9-[(E)-4-methoxybut-2-enyl]-15,18,21,24,30,34,37-heptamethyl-26-[(1S)-1-methylpropyl]-33-(piperidine-1-carbonyl)-6,9,12,15,18,21,24,27,30,34,37-undecazaspiro[4.33]octatriacontane-7,10,13,16,19,22,25,28,31,35,38-undecone] ([NMeL]I[Sar][Sar][NMeCha][Sar][hPhe(3-Cl-4-CF3)][X127][Ac5c][NMeChg][NMeD]-Piperidide; lactam N-11)	2.5 nM
CC[C@H](C)[C@@H]1NC(=O)[C@H](CC(C)C)N(C)C(=O)C[C@@H](C(=O)N2CCCCC2)N(C)C(=O)[C@H](C2CCCCC2)N(C)C(=O)C2(CCCC2)NC(=O)[C@H](CC=C2CCOCC2)N(C)C(=O)[C@H](CCc2ccc(C(F)(F)F)c(Cl)c2)NC(=O)CN(C)C(=O)[C@H](CC2CCCCC2)N(C)C(=O)CN(C)C(=O)CN(C)C1=O [Compound 2053, (8S,11S,17S,26S,29S,33S,36S)-11-[2-[3-chloro-4-(trifluoromethyl)phenyl]ethyl]-36-cyclohexyl-17-(cyclohexylmethyl)-29-isobutyl-9,15,18,21,24,30,34,37-octamethyl-26-[(1S)-1-methylpropyl]-33-(piperidine-1-carbonyl)-8-(2-tetrahydropyran-4-ylideneethyl)-6,9,12,15,18,21,24,27,30,34,37-undecazaspiro[4.33]octatriacontane-7,10,13,16,19,22,25,28,31,35,38-undecone] ([NMeL]I[Sar][Sar][NMeCha][Sar][hPhe(3-Cl-4-CF3)][X41][Ac5c][NMeChg][NMeD]-Piperidide; lactam N-11)	10 nM
CC[C@H](C)[C@@H]1NC(=O)[C@H](C)N(C)C(=O)C[C@@H](C(=O)N2CCCCC2)N(C)C(=O)[C@H](C2CCCCC2)N(C)C(=O)C2(CCCC2)NC(=O)[C@@H]2CCCN2C(=O)[C@H](CCCc2ccc(C(F)(F)F)cc2)NC(=O)CN(C)C(=O)[C@H](CC2CCCCC2)N(C)C(=O)CN(C)C(=O)CN(C)C1=O [Compound 2055, (3S,9S,18S,21S,25S,28S,34S)-28-cyclohexyl-9-(cyclohexylmethyl)-7,10,13,16,21,22,26,29-octamethyl-18-[(1S)-1-methylpropyl]-25-(piperidine-1-carbonyl)-3-[3-[4-(trifluoromethyl)phenyl]propyl]spiro[1,4,7,10,13,16,19,22,26,29,32-undecazabicyclo[32.3.0]heptatriacontane-31,1′-cyclopentane]-2,5,8,11,14,17,20,23,27,30,33-undecone] ([NMeA]I[Sar][Sar][NMeCha][Sar][X65]P[Ac5c][NMeChg][NMeD]-Piperidide; lactam N-11)	27 nM
